Reference: patent publication US6436963B1 (priority 1998, dated 2002)

Columns and labels:
Format in all cases: in vivo
[1] = system: Erysiphe graminis; test: Powdery Mildew of Wheat (ERYSGT), protectant spray test on wheat seedlings; details: wheat (cultivar Monon), sprayed to run off at 100 ppm, inoculated after 24 hours
[2] = system: Puccinia recondita; test: Brown Rust (PUCCRT), protectant spray test on wheat seedlings; details: wheat (cultivar Monon), sprayed to run off at 100 ppm, inoculated after 24 hours
[3] = system: Leptosphaeria nodorum; test: Glume Blotch of Wheat (LEPTNO), protectant spray test on wheat seedlings; details: wheat (cultivar Monon), sprayed to run off at 100 ppm, inoculated after 24 hours
[4] = system: Phytophthora infestans; details: tomatoes (cultivar Rutgers), sprayed to run off at 100 ppm, inoculated after 24 hours

SMILES	ERYSGT control of plant disease [1]	PUCCRT control of plant disease [2]	LEPTNO control of plant disease [3]	PHYTIN control of plant disease [4]
CNC(=O)C(=NOC)c1ccccc1COc1ncc(C(O)c2ccc(C(C)(C)C)cc2)cc1Cl (racemic) [Example 10]	++ (++ = 75-100% control of plant disease)	++ (++ = 75-100% control of plant disease)	++ (++ = 75-100% control of plant disease)	++ (++ = 75-100% control of plant disease)
CNC(=O)C(=NOC)c1ccccc1COc1ncc(C2(c3ccccc3)CO2)cc1Cl (stereo not shown) [Example 124]	++ (++ = 75-100% control of plant disease)	++ (++ = 75-100% control of plant disease)	++ (++ = 75-100% control of plant disease)	++ (++ = 75-100% control of plant disease)
CNC(=O)C(=NOC)c1ccccc1COc1ncc(C(OC(=O)C(C)(C)C)c2ccccc2)cc1Cl (racemic) [Example 30]	+ (+ = 25-74% control of plant disease)	++ (++ = 75-100% control of plant disease)	++ (++ = 75-100% control of plant disease)	++ (++ = 75-100% control of plant disease)
CCC(O)(c1ccccc1)c1cnc(OCc2ccccc2C(=NOC)C(=O)NC)c(Cl)c1 (racemic) [Example 42]	++ (++ = 75-100% control of plant disease)	++ (++ = 75-100% control of plant disease)	++ (++ = 75-100% control of plant disease)	++ (++ = 75-100% control of plant disease)
CNC(=O)C(=NOC)c1ccccc1COc1ncc(C(O)C2CCCCC2)cc1Cl (stereo not shown) [Example 87]	++ (++ = 75-100% control of plant disease)	++ (++ = 75-100% control of plant disease)	++ (++ = 75-100% control of plant disease)	++ (++ = 75-100% control of plant disease)
CNC(=O)C(=NOC)c1ccccc1COc1ncc(C(OC(C)C)c2ccccc2)cc1Cl (stereo not shown) [Example 117]	++ (++ = 75-100% control of plant disease)	++ (++ = 75-100% control of plant disease)	++ (++ = 75-100% control of plant disease)	− (− = 0-24% control of plant disease)
CNC(=O)C(=NOC)c1ccccc1COc1ncc(C(OC(C)=O)c2ccc(C)cc2C)cc1Cl (stereo not shown) [Example 92]	++ (++ = 75-100% control of plant disease)	++ (++ = 75-100% control of plant disease)	++ (++ = 75-100% control of plant disease)	++ (++ = 75-100% control of plant disease)
CNC(=O)C(=NOC)c1ccccc1COc1ncc(C(OC)c2ccccc2F)cc1Cl (stereo not shown) [Example 99]	++ (++ = 75-100% control of plant disease)	++ (++ = 75-100% control of plant disease)	++ (++ = 75-100% control of plant disease)	− (− = 0-24% control of plant disease)
CNC(=O)C(=NOC)c1ccccc1COc1ncc(C(C)(OC)c2ccccc2)cc1Cl (racemic) [Example 35]	++ (++ = 75-100% control of plant disease)	++ (++ = 75-100% control of plant disease)	++ (++ = 75-100% control of plant disease)	− (− = 0-24% control of plant disease)
CNC(=O)C(=NOC)c1ccccc1COc1ncc(C(OC(C)=O)c2ccccc2C)cc1Cl (racemic) [Example 61]	++ (++ = 75-100% control of plant disease)	++ (++ = 75-100% control of plant disease)	++ (++ = 75-100% control of plant disease)	++ (++ = 75-100% control of plant disease)
CNC(=O)C(=NOC)c1ccccc1COc1ncc(C(OC=O)c2ccccc2)cc1Cl (racemic) [Example 54]	++ (++ = 75-100% control of plant disease)	++ (++ = 75-100% control of plant disease)	++ (++ = 75-100% control of plant disease)	++ (++ = 75-100% control of plant disease)
CNC(=O)C(=NOC)c1ccccc1COc1ncc(C(OC(C)=O)c2cccc(Cl)c2)cc1Cl (stereo not shown) [Example 75]	++ (++ = 75-100% control of plant disease)	++ (++ = 75-100% control of plant disease)	++ (++ = 75-100% control of plant disease)	++ (++ = 75-100% control of plant disease)
CNC(=O)C(=NOC)c1ccccc1COc1ncc(COCc2ccc(OC)cc2)cc1Cl [Example 25]	++ (++ = 75-100% control of plant disease)	++ (++ = 75-100% control of plant disease)	++ (++ = 75-100% control of plant disease)	+ (+ = 25-74% control of plant disease)
CCCC(=O)OC(c1ccccc1)c1cnc(OCc2ccccc2C(=NOC)C(=O)NC)c(Cl)c1 (racemic) [Example 47]	++ (++ = 75-100% control of plant disease)	++ (++ = 75-100% control of plant disease)	++ (++ = 75-100% control of plant disease)	++ (++ = 75-100% control of plant disease)
CNC(=O)C(=NOC)c1ccccc1COc1ncc(C(OC)c2cccc(C)c2)cc1Cl (stereo not shown) [Example 114]	++ (++ = 75-100% control of plant disease)	++ (++ = 75-100% control of plant disease)	++ (++ = 75-100% control of plant disease)	− (− = 0-24% control of plant disease)
CNC(=O)C(=NOC)c1ccccc1COc1ncc(C(C)OCc2ccc(OC)cc2)cc1Cl (racemic) [Example 17]	++ (++ = 75-100% control of plant disease)	++ (++ = 75-100% control of plant disease)	++ (++ = 75-100% control of plant disease)	− (− = 0-24% control of plant disease)
CNC(=O)C(=NOC)c1ccccc1COc1ncc(C(O)c2ccc3c(c2)OCO3)cc1Cl (racemic) [Example 58]	++ (++ = 75-100% control of plant disease)	++ (++ = 75-100% control of plant disease)	++ (++ = 75-100% control of plant disease)	++ (++ = 75-100% control of plant disease)
CNC(=O)C(=NOC)c1ccccc1COc1ncc(C(OC(C)=O)c2cccc(C)c2)cc1Cl (stereo not shown) [Example 106]	++ (++ = 75-100% control of plant disease)	++ (++ = 75-100% control of plant disease)	++ (++ = 75-100% control of plant disease)	++ (++ = 75-100% control of plant disease)
CCC(=O)OC(c1ccccc1)c1cnc(OCc2ccccc2C(=NOC)C(=O)NC)c(Cl)c1 (racemic) [Example 36]	+ (+ = 25-74% control of plant disease)	++ (++ = 75-100% control of plant disease)	++ (++ = 75-100% control of plant disease)	++ (++ = 75-100% control of plant disease)
CCOC(=O)OC(c1ccccc1)c1cnc(OCc2ccccc2C(=NOC)C(=O)NC)c(Cl)c1 (racemic) [Example 33]	+ (+ = 25-74% control of plant disease)	++ (++ = 75-100% control of plant disease)	++ (++ = 75-100% control of plant disease)	++ (++ = 75-100% control of plant disease)
CNC(=O)C(=NOC)c1ccccc1COc1ncc(C(OC(C)=O)c2ccc(OC(F)(F)F)cc2)cc1Cl (stereo not shown) [Example 78]	++ (++ = 75-100% control of plant disease)	++ (++ = 75-100% control of plant disease)	++ (++ = 75-100% control of plant disease)	++ (++ = 75-100% control of plant disease)
CNC(=O)C(=NOC)c1ccccc1COc1ncc(C(O)c2ccc(Cl)cc2)cc1Cl (racemic) [Example 9]	++ (++ = 75-100% control of plant disease)	++ (++ = 75-100% control of plant disease)	++ (++ = 75-100% control of plant disease)	++ (++ = 75-100% control of plant disease)
CC[Si](CC)(CC)OC(c1ccccc1)c1cnc(OCc2ccccc2C(=NOC)C(=O)NC)c(Cl)c1 (stereo not shown) [Example 67]	++ (++ = 75-100% control of plant disease)	++ (++ = 75-100% control of plant disease)	++ (++ = 75-100% control of plant disease)	= =
CNC(=O)C(=NOC)c1ccccc1COc1ncc(C(OC(=O)C(F)(F)F)c2ccccc2)cc1Cl (racemic) [Example 37]	+ (+ = 25-74% control of plant disease)	++ (++ = 75-100% control of plant disease)	++ (++ = 75-100% control of plant disease)	++ (++ = 75-100% control of plant disease)
CNC(=O)C(=NOC)c1ccccc1COc1ncc(C(C)O)cc1Cl (racemic) [Example 40]	+ (+ = 25-74% control of plant disease)	++ (++ = 75-100% control of plant disease)	++ (++ = 75-100% control of plant disease)	+ (+ = 25-74% control of plant disease)
